The results in this text go back to patent US11267780B2, “Compound for modulating DDAH and ADMA levels, as well as methods of using thereof to treat disease” (THE TRUSTEES OF INDIANA UNIVERITY, priority 2018, dated 2022).

“Also recorded” adds a separate entry of the source.

One assay deals with monocrotalin induced PAH. Nature of the assay: Rat model of monocrotalin induced PAH. Format: in vivo. As to conditions: 1 mg/kg s.c. once a day. The method, then: A rat model of monocrotalin induced PAH was used for in vivo studies. Male Sprague Dawley rats about 250 g were purchased from Charles river. PAH was induced by a single s.c. injection of 60 mg/kg monocrotalin. VN-317 (1 mg/kg) or vehicle was administered subcutaneously on day one and once a day thereafter. After 6 weeks, the disease development was determined by pulmonary artery (PA) pressure measurements, echocardiography, and histology. PA pressure was determined by right heart catheterization using a 1.4-F micromanometer-tipped Millar catheter with fluoroscopy guidance. Transthoracic echocardiography was performed using a GE vivid i with 5.0-13.0 MHz il2L-RS linear array transducer. Pulmonary artery acceleration time (PAAT) was measured using pulse-wave Doppler echocardiography with the sample volume centrally positioned in the PA distal to the pulmonary valve. M-mode was applied to measure the right ventricular cavity thickness during end diastole using the parasternal long-axis view obtained from the right side of the rat. Tissue and blood samples were collected at termination. Tissues were fixed in 10% formalin, embedded in paraffin, and then processed for histomorphometry. Macrophage in lung tissues were determined by immunostaining using CD68 antibodies.

The test system of another assay is DDAH promoter. The experiment in a line: DDAH promoter activation assay (DDAH promoter-Luciferase reporter). The format is cell-based. The method, then: DDAH promoter activation assay. Activation of DDAH promoter was determined using a DDAH promoter-Luciferase reporter assay. DDAH promoter DNA sequence was cloned in pGL4.10 luciferase reporter plasmid. For transfection of HEK-293 cells, the cells were seeded in six well plates at a density of 2.0×10^5 cells/well. After 24 hours, the cells were transfected with the DDAH promoter plasmid by adding 200 ng DNA/well and incubated for 24 hours. Transfected cells were then transferred to 96 well plates at 50,000 cells/well and incubated overnight with various concentrations of the test compounds. The medium was removed from the wells and 20 μL of lysis reagent was added. After 5 min, 100 μL Luciferase assay reagent was added, and luminescence was measured.
In general terms: Reporter assays use an easily measured gene product as a stand-in for the process of interest.

The test system of assay [1] is DDAH-1 protein. Nature of the assay: DDAH western blot analysis in human retinal microvascular endothelial cells. Format: cell-based. To be noted: 24 hours. The method, then:
(§1) DDAH and Collagen western blot analysis. Human umbilical vein endothelial cells (HUVEC), retinal endothelial cells and vascular smooth muscle cells from Lonza were transferred to 6 well plates at a density of 4.0×10^5/well and incubated overnight. Various concentrations of test compounds were then added. After 24 hours, medium was removed, the cells were scraped and collected in 50 μL of lysis buffer containing 50 mM Tris-HCl, 0.25% deoxycholic acid, 1% NP-40, 1 mM EDTA and protease inhibitor cocktails. Cell extract was subjected to SDS polyacrylamide gel electrophoresis. Proteins from the 12% polyacrylamide gels were transferred to PVDF membranes for westerns and blotted with DDAH or collagen 1 antibodies from Abcam.
(§2) Expression of DDAH was determined in human pulmonary artery smooth muscle cells (FIG. 1A) and human retinal microvascular endothelial cells (FIG. 1B). Cells were treated with different concentrations of VN-317. After 24 hours, cells were extracted in lysis buffer as described under methods. Extracts were subjected to SDS gel electrophoresis. Proteins from SDS gel were transferred to PVDF membrane and for western blotting using DDAH-1 antibodies. […] Therese data illustrate differential modulation of DDAH by VN-317 in different cell types.
In general terms: Immunoblotting shows a protein as a band on a membrane.

A further assay deals with collagen 1. Nature of the assay: Collagen western blot analysis in myofibroblast like smooth muscle cells. The format is cell-based. As to conditions: in response to TGF-beta, 48 hours. The method, then: as §1
Cells were treated with VN-317 in the presence or absence of TGF-beta. After 48 hours, cells were extracted in 50 ul lysis buffer and cell extract was subjected to SDS gel electrophoresis. Proteins from the 12% polyacrylamide gels were transferred to PVDF membranes for westerns and blotted collagen 1a antibodies from Abcam.

The test system of assay [2] is DDAH-1 protein. The experiment in a line: DDAH western blot analysis in human pulmonary artery smooth muscle cells. The format is cell-based. As to conditions: 24 hours. As to the method:
as §1, §2

[3] abbreviates: after 6 weeks, echocardiography.
The mark [4] stands for this setting: Table 1, stilbene-based ADMA-modulating agents.
The mark [5] stands for this setting: Table 3, other ADMA-lowering agents.
Setting [6] is: Table 2, ADMA-lowering agents including heterocycles.

For orientation: EC50 means the midpoint of the concentration-response curve. The low end stands for greater potency, the high end for weaker potency. For the compound `Cc1cc(O)ccc1/C=C/c1cccc(C(=O)O)c1` [VN-317, (E)-3-(4-hydroxy-2-methylstyryl)benzoic acid], in the assay with monocrotalin induced PAH (after 6 weeks), the “inflammation in the lung (CD68 immuno-staining)” value is listed as “dramatic reduction; also recorded: reduced”, the “pulmonary artery medial thickening (histology)” value is “open artery; also recorded: reduced”, the “pulmonary artery pressure (PAP)” value was “significantly reduced” and the “vascular disease in the lung” value is reported as “reduced”. Besides, in the assay with monocrotalin induced PAH (setting [3]), the “pulmonary artery blood acceleration time (PAAT)” value is listed as “increased” and the “right ventricle cavity thickness” value is on record as “reduced”. Besides, the body weight loss result with monocrotalin induced PAH (over 6 weeks) is “prevented”. Moreover, the mortality entry in the assay with monocrotalin induced PAH (until week 6, N=6) was “none and reduced”. In the assay with DDAH promoter (setting [4]), the concentration giving a half-maximal response (EC50) is 7 nM. Also, in the assay on DDAH-1 protein [1], the “DDAH-1 protein expression (western blot)” value is given as “reducing; also recorded: reduced”. Moreover, the “collagen production (western blot)” value in the assay with collagen 1 is reported as “reduced”. Besides, the “DDAH-1 protein expression (western blot)” value with DDAH-1 protein [2] is reported as “enhancing; also recorded: enhanced”.
Take `O=C(O)c1cccc(/C=C/c2ccc(O)cc2)c1` [VN-328, (E)-3-(4-hydroxystyryl)benzoic acid]: in the assay with DDAH promoter (setting [4]), the EC50 came out at 18.6 nM.
Same read-out and setting: with `Cc1ccccc1/C=C/c1cccc(C(=O)O)c1` [VN-329, (E)-3-(2-methylstyryl)benzoic acid] the figure was 8.7 nM.
Take `O=C(O)c1cccc(/C=C/c2ccccc2)c1` [VN-330, (E)-3-styrylbenzoic acid]: in the assay with DDAH promoter (setting [4]), the EC50 was 53 nM.
Same read-out and setting: the value for `COc1ccc(/C=C/c2cccc(C(=O)O)c2)c(C)c1` [VN-333, (E)-3-(4-methoxy-2-methylstyryl)benzoic acid] was 1.8 nM.
Turning to `O=C(O)c1cccc(/C=C\c2ccccc2)c1` [VN-339, (Z)-3-styrylbenzoic acid], at DDAH promoter (setting [4]), the “EC50 nM” value is reported as “Ambiguous”.
As to `COc1ccc(/C=C\c2cccc(C(=O)O)c2)c(C)c1` [VN-342, (Z)-3-(4-methoxy-2-methylstyryl)benzoic acid], a half-maximal effect in the assay on DDAH promoter (setting [4]) (EC50) was put at 81.5 nM. That is a double-digit nanomolar value.
Compound `O=C(O)c1cccc([C@H]2C[C@@H]2c2ccccc2)c1` [VN-347, 3-((1S,2S)-2-phenylcyclopropyl)benzoic acid] showed an EC50 in the assay with DDAH promoter (setting [5]) of 3.3 nM.
`O=C(O)c1cccc(/C=C/c2cocn2)c1` [VN-351, (E)-3-(2-(oxazol-4-yl)vinyl)benzoic acid] had an EC50 with DDAH promoter (setting [6]) of 87 nM.
Still for that read-out and setting: the value for `O=C(O)c1cccc(/C=C/c2cccnc2)c1` [VN-353, (E)-3-(2-(pyridin-3-yl)vinyl)benzoic acid] was 58 nM; that for `O=C(O)c1cccc(/C=C/c2cccnc2)c1` [VN-354, (E)-3-(2-(pyridin-3-yl)vinyl)benzoic acid] was 672 nM; that for `O=C(O)c1cccc(/C=C/c2ccncc2)c1` [VN-355, (E)-3-(2-(pyridin-4-yl)vinyl)benzoic acid] was 651 nM.
On to `O=C(O)c1cc(/C=C/c2ccccc2)ccc1O` [VN-359, (E)-2-hydroxy-5-styrylbenzoic acid], for which the EC50 in the assay on DDAH promoter (setting [4]) came out at 0.16 nM.
As to `O=C(O)c1cccc(/C=C/c2cccc(OCCN3CCOCC3)c2)c1` [VN-362, (E)-3-(3-(2-morpholinoethoxy)styryl)benzoic acid], in the assay on DDAH promoter (setting [4]), the concentration for a half-maximal effect (EC50) was determined as 1.3 nM.
`O=C(O)c1cccc(/C=C/c2ccc(OCCN3CCOCC3)cc2)c1` [VN-363, (E)-3-(4-(2-morpholinoethoxy)styryl)benzoic acid] came in with an EC50 in the assay on DDAH promoter (setting [4]) of 0.97 nM. This EC50 and that of the compound before are within 1.5-fold of each other.
Turning to `O=C(O)c1cccc(/C=C/c2nccs2)c1` [VN-365, (E)-3-(2-(thiazol-2-yl)vinyl)benzoic acid], it took 180 nM to reach a half-maximal effect in the assay on DDAH promoter (setting [6]) (EC50). This counts as sub-micromolar.
On the same count and under the same terms, with `O=C(O)c1cccc(/C=C/c2cscn2)c1` [VN-366, (E)-3-(2-(thiazol-4-yl)vinyl)benzoic acid] the figure was 1370 nM; with `O=C(O)c1cccc(/C=C/c2cncs2)c1` [VN-367, (E)-3-(2-(thiazol-5-yl)vinyl)benzoic acid], 1060 nM.
As for `O=C(O)c1cccc(/C=C/c2cccs2)c1` [VN-368, (E)-3-(2-(thiophen-2-yl)vinyl)benzoic acid], in the assay on DDAH promoter (setting [6]), the EC50 was found to be 0.79 nM.
Compound `O=C(O)c1cccc(/C=C/c2ccsc2)c1` [VN-369, (E)-3-(2-(thiophen-3-yl)vinyl)benzoic acid] registered an EC50 in the assay with DDAH promoter (setting [6]) of 1.23 nM.
`O=C(O)c1cccc(/C=C/c2ccc(Cl)cc2)c1` [VN-371, (E)-3-(4-chlorostyryl)benzoic acid]: in the assay with DDAH promoter (setting [4]), the EC50 turned out to be 1.4 nM.
On to `O=C(O)c1cccc(/C=C\c2ccc(F)cc2)c1` [VN-372, (Z)-3-(4-fluorostyryl)benzoic acid], for which the EC50 with DDAH promoter (setting [4]) came to 10.4 nM.
Take `O=C(O)c1cccc(/C=C\c2cccs2)c1` [VN-373, (Z)-3-(2-(thiophen-2-yl)vinyl)benzoic acid]: the response in the assay with DDAH promoter (setting [6]) was half-maximal at 0.76 nM (EC50).
`O=C(O)c1cccc([C@@H]2C[C@@H]2c2ccccc2)c1` [VN-376, 3-((1R,2S)-2-phenylcyclopropyl)benzoic acid] yielded an EC50 in the assay on DDAH promoter (setting [5]) of 527 nM.
For `O=C(O)c1cccc(/C=C\c2ccc(Cl)cc2)c1` [VN-379, (Z)-3-(4-chlorostyryl)benzoic acid], the EC50 with DDAH promoter (setting [4]) was 3.9 nM.
`O=C(O)c1cccc(/C=C\c2cocn2)c1` [VN-380, (Z)-3-(2-(oxazol-4-yl)vinyl)benzoic acid] showed an EC50 with DDAH promoter (setting [6]) of 0.17 nM.
Still for that read-out and setting: with `O=C(O)c1cccc(/C=C\c2cccnc2)c1` [VN-381, (Z)-3-(2-(pyridin-3-yl)vinyl)benzoic acid] the figure was 0.73 nM; with `O=C(O)c1cccc(/C=C\c2cncs2)c1` [VN-386, (Z)-3-(2-(thiazol-5-yl)vinyl)benzoic acid], 2.8 nM.
For the compound `O=C(O)c1cccc(/C=C\c2ccncc2)c1` [VN-387, (Z)-3-(2-(pyridin-4-yl)vinyl)benzoic acid], in the assay on DDAH promoter (setting [6]), the midpoint of the response, the EC50, lay at 1.7 nM.
For `O=C(O)c1cccc(/C=C\c2cccc(OCCN3CCOCC3)c2)c1` [VN-388, (Z)-3-(3-(2-morpholinoethoxy)styryl)benzoic acid], on DDAH promoter (setting [4]), the “EC50 nM” value is recorded as “Ambiguous”.
As for `O=C(O)c1cccc(/C=C/c2ccc(F)cc2)c1` [VN-390, (E)-3-(4-fluorostyryl)benzoic acid], a half-maximal effect in the assay on DDAH promoter (setting [4]) (EC50) was put at 3.4 nM.
